“And” between values parts separate entries of the source, which are not always exact repeats. Equal entries are not always repeated. Where two headings read alike, the source gives them in different places. One block for each compound: values may come before it.
What was measured:
[1] = target: T1, 11β-HSD1 (Homo sapiens (Human), UniProt P28845)
[2] = fraction unbound in human plasma (equilibrium dialysis), Biological Test Example 5; assay type: in vitro ADME; settings: for Biological Test Example 5 (%): fraction unbound in human plasma
[3] = target: human recombinant cytochrome P450 3A4 (Homo sapiens (Human), UniProt P08684); assay: CYP3A4 inhibition, Biological Test Example 6; assay type: in vitro ADME
[4] = target: human recombinant cytochrome P450 2C19 (Homo sapiens (Human), UniProt P33261); assay: CYP2C19 inhibition, Biological Test Example 8; assay type: in vitro ADME; settings: read-out: Biological Test Example 8 CYP2C19, IC50
[5] = target: human CYP2C9 (Homo sapiens (Human), UniProt P11712); assay: CYP2C9 inhibition (Invitrogen kit, OOMR fluorogenic substrate), Biological Test Example 9; assay type: in vitro ADME; settings: read-out: Biological Test Example 9 CYP2C9 IC50
[6] = target: human recombinant cytochrome P450 2C9 (Homo sapiens (Human), UniProt P11712); assay: CYP2C9 inhibition ([O-methyl-14C]-Naproxen), Biological Test Example 7; assay type: in vitro ADME
[7] = target: T1, 11β-HSD1; assay type: biochemical; settings: human liver microsomes, 100% indicates no inhibition, zero or below zero indicates complete inhibition
[8] = slurry experiment on stability of the crystal form (XRPD); settings: 30 minutes
[9] = human recombinant CYP2C19, [N-methyl-14C]-Diazepam

Chain of human recombinant cytochrome P450 2C9 (P11712 whole entry): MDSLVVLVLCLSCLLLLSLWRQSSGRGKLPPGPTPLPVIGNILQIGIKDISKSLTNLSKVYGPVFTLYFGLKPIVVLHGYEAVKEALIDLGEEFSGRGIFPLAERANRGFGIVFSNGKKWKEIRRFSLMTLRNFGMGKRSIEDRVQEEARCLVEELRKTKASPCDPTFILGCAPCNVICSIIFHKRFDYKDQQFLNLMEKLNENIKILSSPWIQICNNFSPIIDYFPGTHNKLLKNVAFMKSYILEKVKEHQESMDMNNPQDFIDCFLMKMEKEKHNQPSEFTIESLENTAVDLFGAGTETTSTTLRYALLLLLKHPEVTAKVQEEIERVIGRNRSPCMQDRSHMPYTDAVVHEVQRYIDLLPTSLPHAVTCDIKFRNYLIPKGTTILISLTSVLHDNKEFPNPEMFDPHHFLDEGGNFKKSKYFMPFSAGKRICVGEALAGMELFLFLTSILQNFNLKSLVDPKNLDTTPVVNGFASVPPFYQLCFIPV
T1 sequence (P28845 whole entry): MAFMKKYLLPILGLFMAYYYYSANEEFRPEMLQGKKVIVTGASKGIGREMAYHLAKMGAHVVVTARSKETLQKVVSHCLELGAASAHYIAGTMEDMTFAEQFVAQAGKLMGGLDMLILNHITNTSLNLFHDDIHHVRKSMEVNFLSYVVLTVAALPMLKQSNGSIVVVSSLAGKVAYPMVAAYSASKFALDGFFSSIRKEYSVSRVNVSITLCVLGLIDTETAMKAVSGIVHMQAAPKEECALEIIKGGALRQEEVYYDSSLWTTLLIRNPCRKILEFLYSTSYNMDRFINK
Chain of human recombinant cytochrome P450 3A4 (P08684 whole entry): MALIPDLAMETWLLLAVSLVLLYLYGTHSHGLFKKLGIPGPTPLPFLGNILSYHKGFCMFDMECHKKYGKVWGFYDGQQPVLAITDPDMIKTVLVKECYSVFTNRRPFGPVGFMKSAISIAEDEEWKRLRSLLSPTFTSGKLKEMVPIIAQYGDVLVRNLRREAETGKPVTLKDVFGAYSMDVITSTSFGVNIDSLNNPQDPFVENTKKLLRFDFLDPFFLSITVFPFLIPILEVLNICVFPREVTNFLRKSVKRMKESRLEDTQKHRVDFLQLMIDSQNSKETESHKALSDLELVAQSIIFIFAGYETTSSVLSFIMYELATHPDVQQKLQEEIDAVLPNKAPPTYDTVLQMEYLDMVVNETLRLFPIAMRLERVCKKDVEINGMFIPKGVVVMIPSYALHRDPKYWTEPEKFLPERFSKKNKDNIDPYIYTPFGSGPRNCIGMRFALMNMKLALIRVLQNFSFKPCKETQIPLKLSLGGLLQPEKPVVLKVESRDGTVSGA
Chain of human CYP2C9 (P11712 whole entry): as the sequence (P11712 whole entry) above
Chain of human recombinant cytochrome P450 2C19 (P33261 whole entry): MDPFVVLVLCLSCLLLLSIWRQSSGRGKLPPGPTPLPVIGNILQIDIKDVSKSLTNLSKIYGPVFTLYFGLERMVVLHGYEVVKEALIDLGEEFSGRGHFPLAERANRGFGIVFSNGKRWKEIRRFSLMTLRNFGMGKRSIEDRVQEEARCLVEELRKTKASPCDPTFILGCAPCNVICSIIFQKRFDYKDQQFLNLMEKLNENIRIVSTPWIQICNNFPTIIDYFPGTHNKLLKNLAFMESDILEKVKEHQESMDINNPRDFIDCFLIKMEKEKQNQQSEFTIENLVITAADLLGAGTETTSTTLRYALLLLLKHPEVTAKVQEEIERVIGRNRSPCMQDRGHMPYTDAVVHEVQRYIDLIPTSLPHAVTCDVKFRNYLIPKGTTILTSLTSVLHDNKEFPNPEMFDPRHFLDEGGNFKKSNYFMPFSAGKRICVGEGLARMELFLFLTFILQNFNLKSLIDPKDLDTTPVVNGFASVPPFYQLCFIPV

SMILES: C[C@@H](c1ccc(-c2ccn(C3CC3)c(=O)c2)cc1)N1CCC(CC(C)(C)O)(C2CCOCC2)OC1=O (single isomer, unassigned) [Example 91 Isomer 2]
Average % inhibition at 100 nM ([1]; Biological Test Example 1): 13.8%

SMILES: C[C@@H](c1ccc(-c2ccn(C3CC3)c(=O)c2)cc1)N1CCC(CC(C)(C)C)(CC(C)(C)O)OC1=O (single isomer, unassigned) [Example 94 Isomer 1]
Average % inhibition at 100 nM ([1]; Biological Test Example 1, listed as EXAMPLE 94 Isomer 1): 41.9%

SMILES: C[C@@H](c1ccc(-c2ccn(C3CC3)c(=O)c2)cc1)N1CCC(CC(C)(C)C)(CC(C)(C)O)OC1=O (single isomer, unassigned) [Example 94 Isomer 2]
Average % inhibition at 100 nM ([1]; Biological Test Example 1, listed as EXAMPLE 94 Isomer 2): 8.2%

SMILES: C[C@@H](c1ccc(-c2ccn(C3CC3)c(=O)c2)cc1)N1CCC(CC(C)(C)O)(C2CC(F)(F)C2)OC1=O (single isomer, unassigned) [Example 95 Isomer 2]
Average % inhibition at 100 nM ([1]; Biological Test Example 1): 8.0%

Biological Test Example 5 (fraction unbound in human plasma) [2]: 0.7% | IC50 ([3]; human recombinant CYP3A4): 14.1 µM | IC50 [4, 9]: […]
SMILES: C[C@@H](c1ccc(-c2ccc(=O)n(C)c2)cc1)N1CC[C@](CC(C)(C)NS(C)(=O)=O)(c2ccccc2)OC1=O [Example 11, N-(2-methyl-1-((S)-3-((S)-1-(4-(1-methyl-6-oxo-1,6-dihydropyridin-3-yl)phenyl)ethyl)-2-oxo-6-phenyl-1,3-oxazinan-6-yl)propan-2-yl)methanesulfonamide]

Biological Test Example 5 (fraction unbound in human plasma) [2]: 0.4% | IC50 ([5]; Invitrogen kit, OOMR fluorogenic substrate): 2.5 µM | IC50 ([6]; human recombinant CYP2C9): […] | IC50 ([3]; human recombinant CYP3A4): 4.9 µM | IC50 [4, 9]: […]
SMILES: C[C@@H](c1ccc(-c2ccc(=O)n(C)c2)cc1)N1CC[C@](CC(C)(C)N(C)S(C)(=O)=O)(c2ccccc2)OC1=O [Example 12, N-methyl-N-(2-methyl-1-((S)-3-((S)-1-(4-(1-methyl-6-oxo-1,6-dihydropyridin-3-yl)phenyl)ethyl)-2-oxo-6-phenyl-1,3-oxazinan-6-yl)propan-2-yl)methanesulfonamide]

Biological Test Example 5 (%) [2]: 8.7% | IC50 [5]: 30 µM | IC50 [6]: > 50 µM | IC50 [3]: > 50 µM | IC50 [4]: > 50 µM
SMILES: C[C@@H](c1ccc(-c2ccn(C)c(=O)c2)cc1)N1CC[C@](CC(C)(C)O)(c2ccccc2)OC1=O [Example 48, (S)-6-(2-hydroxy-2-methylpropyl)-3-((S)-1-(4-(1-methyl-2-oxo-1,2-dihydropyridin-4-yl)phenyl)ethyl)-6-phenyl-1,3-oxazinan-2-one]

Biological Test Example 5 (%) [2]: 9.0%
SMILES: CC[C@@H](c1ccc(-c2ccc(=O)n(CC)c2)cc1)N1CC[C@](CC(C)(C)O)(c2ccccc2)OC1=O [Example 52, (S)-3-((S)-1-(4-(1-ethyl-6-oxo-1,6-dihydropyridin-3-yl)phenyl)propyl)-6-(2-hydroxy-2-methylpropyl)-6-phenyl-1,3-oxazinan-2-one]

Biological Test Example 5 (%) [2]: 9.1% | IC50 [6]: > 50 µM | IC50 [3]: > 50 µM
SMILES: CC[C@@H](c1ccc(-c2ccc(=O)n(C)c2)cc1)N1CC[C@](CC(C)(C)O)(c2ccccc2)OC1=O [Example 54, (S)-6-(2-hydroxy-2-methylpropyl)-3-((S)-1-(4-(1-methyl-6-oxo-1,6-dihydropyridin-3-yl)phenyl)propyl)-6-phenyl-1,3-oxazinan-2-one]

Biological Test Example 5 (%) [2]: 7.1%
SMILES: CC[C@@H](c1ccc(-c2ccn(C)c(=O)c2)cc1)N1CC[C@](CC(C)(C)O)(c2ccccc2)OC1=O [Example 55, (S)-6-(2-hydroxy-2-methylpropyl)-3-((S)-1-(4-(1-methyl-2-oxo-1,2-dihydropyridin-4-yl)phenyl)propyl)-6-phenyl-1,3-oxazinan-2-one]

Biological Test Example 5 (%) [2]: 5.5%
SMILES: C[C@@H](c1ccc(-c2ccn(CC(F)(F)F)c(=O)c2)cc1)N1CC[C@](CC(C)(C)O)(c2ccccc2)OC1=O [Example 66, (S)-6-(2-hydroxy-2-methylpropyl)-3-((S)-1-(4-(2-oxo-1-(2,2,2-trifluoroethyl)-1,2-dihydropyridin-4-yl)phenyl)ethyl)-6-phenyl-1,3-oxazinan-2-one]

SMILES: C[C@@H](c1ccc(-c2cc(=O)n(C)cc2F)cc1)N1CC[C@](CC(C)(C)O)(c2ccccc2)OC1=O [Example 79, 3-{(S)-1-[4-(5-Fluoro-1-methyl-2-oxo-1,2-dihydro-pyridin-4-yl)-phenyl]-ethyl}-(S)-6-(2-hydroxy-2-methyl-propyl)-6-phenyl-[1,3]oxazinan-2-one]
IC50 [6]: > 50 µM | IC50 [3]: > 50 µM | Average % control inhibition at 100 nM [7]: 15 % control | IC50 [4]: > 50 µM

SMILES: C[C@@H](c1ccc(-c2ccn(CC(C)(C)O)c(=O)c2)cc1)N1CC[C@](CC(C)(C)O)(c2ccccc2)OC1=O [Example 80, (S)-6-(2-Hydroxy-2-methyl-propyl)-3-((S)-1-{4-[1-(2-hydroxy-2-methyl-propyl)-2-oxo-1,2-dihydro-pyridin-4-yl]-phenyl}-ethyl)-6-phenyl-[1,3]oxazinan-2-one]
IC50 [6]: > 50 µM | IC50 [3]: > 50 µM | Average % control inhibition at 100 nM [7]: 37 % control

SMILES: COCC(C)Cn1ccc(-c2ccc([C@H](C)N3CC[C@](CC(C)(C)O)(c4ccccc4)OC3=O)cc2)cc1=O (stereo partly drawn) [Example 81, (S)-6-(2-Hydroxy-2-methyl-propyl)-3-((S)-1-{4-[1-(3-methoxy-2-methyl-propyl)-2-oxo-1,2-dihydro-pyridin-4-yl]-phenyl}-ethyl)-6-phenyl-[1,3]oxazinan-2-one]
Average % control inhibition at 100 nM [7]: 11 % control

SMILES: CC(CO)Cn1ccc(-c2ccc([C@H](C)N3CC[C@](CC(C)(C)O)(c4ccccc4)OC3=O)cc2)cc1=O (stereo partly drawn) [Example 82, (S)-6-(2-Hydroxy-2-methyl-propyl)-3-((S)-1-{4-[1-(3-hydroxy-2-methyl-propyl)-2-oxo-1,2-dihydro-pyridin-4-yl]-phenyl}-ethyl)-6-phenyl-[1,3]oxazinan-2-one]
Average % control inhibition at 100 nM [7]: −12 % control

SMILES: COC(C)(C)Cn1ccc(-c2ccc([C@H](C)N3CC[C@](CC(C)(C)O)(c4ccccc4)OC3=O)cc2)cc1=O [Example 83, (S)-6-(2-Hydroxy-2-methyl-propyl)-3-(1-{4-[1-(2-methoxy-2-methyl-propyl)-2-oxo-1,2-dihydro-pyridin-4-yl]-phenyl}-ethyl)-6-phenyl-[1,3]oxazinan-2-one]
Average % control inhibition at 100 nM [7]: 54 % control

SMILES: C[C@@H](c1ccc(-c2ccn(CC(C)(C)CO)c(=O)c2)cc1)N1CC[C@](CC(C)(C)O)(c2ccccc2)OC1=O [Example 90, 3-((S)-1-{4-[1-(3-Hydroxy-2,2-dimethyl-propyl)-2-oxo-1,2-dihydro-pyridin-4-yl]-phenyl}-ethyl)-(S)-6-(2-hydroxy-2-methyl-propyl)-6-phenyl-[1,3]oxazinan-2-one]
Average % control inhibition at 100 nM [7]: 4 % control

remaining in the anhydrous state during the measurement by XRPD [8]: did not remain in the anhydrous state
SMILES: C[C@@H](c1ccc(-c2ccn(C)c(=O)c2)cc1)N1CC[C@](CC(C)(C)O)(c2ccccc2)OC1=O [anhydrous form of Example 48, (S)-6-(2-hydroxy-2-methylpropyl)-3-((S)-1-(4-(1-methyl-2-oxo-1,2-dihydropyridin-4-yl)phenyl)ethyl)-6-phenyl-1,3-oxazinan-2-one]

remaining in the anhydrous state during the measurement by XRPD [8]: did not remain in the anhydrous state
SMILES: C[C@@H](c1ccc(-c2ccn(C3CC3)c(=O)c2)cc1)N1CC[C@](CC(C)(C)O)(c2ccccc2)OC1=O [anhydrous form of Example 75, 3-{(S)-1-[4-(1-Cyclopropyl-2-oxo-1,2-dihydro-pyridin-4-yl)-phenyl]-ethyl}-(S)-6-(2-hydroxy-2-methyl-propyl)-6-phenyl-[1,3]oxazinan-2-one]

From US8575157B2, “Cyclic inhibitors of 11beta-hydroxysteroid dehydrogenase 1” (Vitae Pharmaceuticals, Inc., priority 2010, dated 2013)
